System: MV-4-11 cells
Assay: Gene expression microarray analysis (Affymetrix PrimeView) and GSEA
Assay type: cell-based, human
Design: RFU PODN (11730768_x_at) / Fold change /veh PODN (11730768_x_at) / RFU LINC00158 (11744669_a_at) / Fold change /veh LINC00158 (11744669_a_at) / RFU DUSP10 (11751237_a_at) / Fold change /veh DUSP10 (11751237_a_at) / RFU ID3 (11757404_x_at) / Fold change /veh ID3 (11757404_x_at) / RFU PLEKHG5 (11737974_s_at) / Fold change /veh PLEKHG5 (11737974_s_at) / RFU LRRC4B (11730491_at) / Fold change /veh LRRC4B (11730491_at) / RFU GIMAP4 (11747438_a_at) / Fold change /veh GIMAP4 (11747438_a_at) / RFU KRT8 (11758183_x_at) / Fold change /veh KRT8 (11758183_x_at) / RFU CNN1 (11734310_a_at) / Fold change /veh CNN1 (11734310_a_at) / RFU VPS37D (11726825_at) / Fold change /veh VPS37D (11726825_at) / RFU C10orf10 (11716522_x_at) / Fold change /veh C10orf10 (11716522_x_at) / RFU KIR2DL2 /// KIR2DL4 /// KIR2DL5A /// KIR2DL5B /// KIR2DS1 /// KIR2DS2 /// KIR2DS3 /// KIR2DS4 /// KIR3DL3 /// KIR3DL3 /// KIR3DS1 (11738374_at) / Fold change /veh KIR2DL2 /// KIR2DL4 /// KIR2DL5A /// KIR2DL5B /// KIR2DS1 /// KIR2DS2 /// KIR2DS3 /// KIR2DS4 /// KIR3DL3 /// KIR3DL3 /// KIR3DS1 (11738374_at) / RFU C1QL1 (11718748_at) / Fold change /veh C1QL1 (11718748_at) / RFU TMPRSS4 (11747572_a_at) / Fold change /veh TMPRSS4 (11747572_a_at) / RFU HAMP (11756126_x_at) / Fold change /veh HAMP (11756126_x_at) / RFU RNFT2 (11725882_a_at) / Fold change /veh RNFT2 (11725882_a_at) / RFU NR4A2 (11747474_a_at) / Fold change /veh NR4A2 (11747474_a_at) / RFU ABCC12 (11746883_a_at) / Fold change /veh ABCC12 (11746883_a_at) / RFU TMEM136 (11760407_x_at) / Fold change /veh TMEM136 (11760407_x_at) / RFU CLDN22 /// WWC2 (11732394_at) / Fold change /veh CLDN22 /// WWC2 (11732394_at) / RFU HLA-DPB1 (11760878_x_at) / Fold change /veh HLA-DPB1 (11760878_x_at) / RFU SPINT1 (11716480_a_at) / Fold change /veh SPINT1 (11716480_a_at) / RFU GAP43 (11754022_s_at) / Fold change /veh GAP43 (11754022_s_at) / RFU A4GNT (11735810_at) / Fold change /veh A4GNT (11735810_at) / RFU PRB3 (11715151_x_at) / Fold change /veh PRB3 (11715151_x_at) / RFU TUBB4B (11761932_at) / Fold change /veh TUBB4B (11761932_at) / RFU CAPN14 (11732068_a_at) / Fold change /veh CAPN14 (11732068_a_at) / RFU TMCC2 (11721928_a_at) / Fold change /veh TMCC2 (11721928_a_at) / RFU IRGQ (11745062_a_at) / Fold change /veh IRGQ (11745062_a_at) / RFU FAM174B (11720279_a_at) / Fold change /veh FAM174B (11720279_a_at) / RFU TMPRSS4 (11748680_a_at) / Fold change /veh TMPRSS4 (11748680_a_at) / RFU FAM212B (11763350_a_at) / Fold change /veh FAM212B (11763350_a_at) / RFU PLEKHG5 (11743358_a_at) / Fold change /veh PLEKHG5 (11743358_a_at) / RFU ZSCAN30 (11745921_a_at) / Fold change /veh ZSCAN30 (11745921_a_at) / RFU CMKLR1 (11741424_a_at) / Fold change /veh CMKLR1 (11741424_a_at) / RFU LOC101060620 /// MAPK8IP1 (11723275_at) / Fold change /veh LOC101060620 /// MAPK8IP1 (11723275_at) / RFU SPTSSB (11747773_x_at) / Fold change /veh SPTSSB (11747773_x_at) / RFU PRSS12 (11739890_at) / Fold change /veh PRSS12 (11739890_at) / RFU BIN1 (11741810_x_at) / Fold change /veh BIN1 (11741810_x_at) / RFU WNT11 (11732464_a_at) / Fold change /veh WNT11 (11732464_a_at) / RFU C10orf10 (11716521_a_at) / Fold change /veh C10orf10 (11716521_a_at) / RFU C5orf56 (11738089_at) / Fold change /veh C5orf56 (11738089_at) / RFU CYB561 (11721691_x_at) / Fold change /veh CYB561 (11721691_x_at) / RFU ANKRD19P (11752326_a_at) / Fold change /veh ANKRD19P (11752326_a_at) / RFU OR2T12 /// OR2T33 /// OR2T8 (11738714_s_at) / Fold change /veh OR2T12 /// OR2T33 /// OR2T8 (11738714_s_at) / RFU VCAN (11748164_a_at) / Fold change /veh VCAN (11748164_a_at) / RFU JSRP1 (11732532_at) / Fold change /veh JSRP1 (11732532_at) / RFU KRTAP10-11 (11738290_x_at) / Fold change /veh KRTAP10-11 (11738290_x_at) / RFU MYO3A (11730013_a_at) / Fold change /veh MYO3A (11730013_a_at) / RFU EBF3 (11725865_a_at) / Fold change /veh EBF3 (11725865_a_at) / RFU CAMK2N1 (11719241_x_at) / Fold change /veh CAMK2N1 (11719241_x_at) / RFU C5orf56 (11738088_a_at) / Fold change /veh C5orf56 (11738088_a_at) / RFU OLFML3 (11715873_a_at) / Fold change /veh OLFML3 (11715873_a_at) / RFU LOC100653217 /// NTM (11731650_a_at) / Fold change /veh LOC100653217 /// NTM (11731650_a_at) / RFU MAPK11 (11762145_a_at) / Fold change /veh MAPK11 (11762145_a_at) / RFU FIZ1 (11724087_x_at) / Fold change /veh FIZ1 (11724087_x_at) / RFU OASL (11726364_x_at) / Fold change /veh OASL (11726364_x_at) / RFU SOX15 (11748057_x_at) / Fold change /veh SOX15 (11748057_x_at) / RFU CD79A (11719716_a_at) / Fold change /veh CD79A (11719716_a_at) / RFU HIST1H1D (11736915_at) / Fold change /veh HIST1H1D (11736915_at) / RFU CASKIN2 (11723855_a_at) / Fold change /veh CASKIN2 (11723855_a_at) / RFU LOC730098 (11760151_x_at) / Fold change /veh LOC730098 (11760151_x_at) / RFU OR4N2 (11742367_at) / Fold change /veh OR4N2 (11742367_at) / RFU PRRT2 (11749266_a_at) / Fold change /veh PRRT2 (11749266_a_at) / RFU SNX32 (11753110_a_at) / Fold change /veh SNX32 (11753110_a_at) / RFU CDHR5 (11726645_a_at) / Fold change /veh CDHR5 (11726645_a_at) / RFU RCAN1 (11760418_a_at) / Fold change /veh RCAN1 (11760418_a_at) / RFU FAM167A (11723789_a_at) / Fold change /veh FAM167A (11723789_a_at) / RFU FAM26E (11764081_at) / Fold change /veh FAM26E (11764081_at) / RFU ISYNA1 (11749810_s_at) / Fold change /veh ISYNA1 (11749810_s_at) / RFU ACY1 (11761880_at) / Fold change /veh ACY1 (11761880_at) / RFU 11764098_at / Fold change /veh 11764098_at / RFU SAMD14 (11745864_x_at) / Fold change /veh SAMD14 (11745864_x_at) / RFU NPB (11741838_a_at) / Fold change /veh NPB (11741838_a_at) / RFU TMPRSS6 (11731388_a_at) / Fold change /veh TMPRSS6 (11731388_a_at) / RFU KRTAP10-2 (11738614_at) / Fold change /veh KRTAP10-2 (11738614_at) / RFU ARHGAP8 /// PRR5-ARHGAP8 (11727945_x_at) / Fold change /veh ARHGAP8 /// PRR5-ARHGAP8 (11727945_x_at) / RFU KRTAP5-7 /// NADSYN1 (11734609_at) / Fold change /veh KRTAP5-7 /// NADSYN1 (11734609_at) / RFU RASL12 (11751679_a_at) / Fold change /veh RASL12 (11751679_a_at) / RFU CDKN2B (11736163_a_at) / Fold change /veh CDKN2B (11736163_a_at) / RFU PRF1 (11729649_at) / Fold change /veh PRF1 (11729649_at) / RFU, ZNF638 /// ZNF638-IT1 / Fold change vs veh, ZNF638 /// ZNF638-IT1 / RFU, PANK3 / Fold change vs veh, PANK3 / RFU, SH3YL1 / Fold change vs veh, SH3YL1 / RFU, ZEB2 / Fold change vs veh, ZEB2 / RFU, NRIP1 / Fold change vs veh, NRIP1 / RFU, PTTG1IP / Fold change vs veh, PTTG1IP / RFU, CAPN2 / Fold change vs veh, CAPN2 / RFU, MED14 / Fold change vs veh, MED14 / RFU, SNORA58 / Fold change vs veh, SNORA58 / RFU, C1orf63 / Fold change vs veh, C1orf63 / RFU, LRRFIP1 / Fold change vs veh, LRRFIP1 / RFU, NDUFAF7 / Fold change vs veh, NDUFAF7 / RFU, SLC12A2 / Fold change vs veh, SLC12A2 / RFU, IBTK / Fold change vs veh, IBTK / RFU, ESF1 / Fold change vs veh, ESF1 / Fold change vs veh, TMEM50B / RFU, TAOK1 / Fold change vs veh, TAOK1 / RFU, ACBD3 / Fold change vs veh, ACBD3 / RFU, TMA16 / Fold change vs veh, TMA16 / RFU, RWDD3 / Fold change vs veh, RWDD3 / RFU, BCAT1 / Fold change vs veh, BCAT1 / RFU, EDEM3 / Fold change vs veh, EDEM3 / RFU, TMEM33 / Fold change vs veh, TMEM33 / RFU, WDR75 / Fold change vs veh, WDR75 / RFU, AHCTF1 / Fold change vs veh, AHCTF1 / RFU, TFRC / Fold change vs veh, TFRC / RFU, ZDHHC17 / Fold change vs veh, ZDHHC17 / RFU, NOM1 / Fold change vs veh, NOM1 / RFU, ARL8B / Fold change vs veh, ARL8B / RFU, ZBTB11 / Fold change vs veh, ZBTB11 / RFU, TAMM41 / Fold change vs veh, TAMM41 / RFU, KIAA1704 /// LOC100996395 / Fold change vs veh, KIAA1704 /// LOC100996395 / RFU, ING1 / Fold change vs veh, ING1 / RFU, TRMT61B / Fold change vs veh, TRMT61B / RFU, FUBP3 / Fold change vs veh, FUBP3 / RFU, TP53 / Fold change vs veh, TP53 / RFU, TNKS2 / Fold change vs veh, TNKS2 / RFU, ZFP14 / Fold change vs veh, ZFP14 / RFU, ACTR2 / Fold change vs veh, ACTR2 / RFU, PPP3R1 / Fold change vs veh, PPP3R1 / RFU, PIK3R1 / Fold change vs veh, PIK3R1 / RFU, HNRNPA1 / Fold change vs veh, HNRNPA1 / RFU, RNF170 / Fold change vs veh, RNF170 / RFU, ZNF28 / Fold change vs veh, ZNF28 / RFU, RNGTT / Fold change vs veh, RNGTT / RFU, OGT / Fold change vs veh, OGT / RFU, BRD1 / Fold change vs veh, BRD1 / RFU, MARS / Fold change vs veh, MARS / RFU, ZNF655 / Fold change vs veh, ZNF655 / RFU, FAHD1 / Fold change vs veh, FAHD1 / RFU, BDP1 / Fold change vs veh, BDP1 / RFU, LRRCC1 / Fold change vs veh, LRRCC1 / RFU, ARID1A / Fold change vs veh, ARID1A / RFU, ZNF146 / Fold change vs veh, ZNF146 / RFU, ZNF330 / Fold change vs veh, ZNF330 / RFU, GPN3 / Fold change vs veh, GPN3 / RFU, C9orf123 / Fold change vs veh, C9orf123 / RFU, N4BP2L2 / Fold change vs veh, N4BP2L2 / RFU, ARFIP1 / Fold change vs veh, ARFIP1 / RFU, FAM179B / Fold change vs veh, FAM179B / RFU, BCL10 / Fold change vs veh, BCL10 / RFU, UHRF1BP1L / Fold change vs veh, UHRF1BP1L / RFU, BET1 / Fold change vs veh, BET1 / RFU, CNOT2 / Fold change vs veh, CNOT2 / RFU, ZNF268 / Fold change vs veh, ZNF268 / Fold change vs veh, ZNF507 / RFU, DGCR2 / Fold change vs veh, DGCR2 / RFU, WDSUB1 / Fold change vs veh, WDSUB1 / Fold change vs veh, HSP90B1 /// MIR3652 / RFU, ADSS / Fold change vs veh, ADSS / RFU, GK / Fold change vs veh, GK / RFU, ZNF148 / Fold change vs veh, ZNF148 / RFU, TAF9 / Fold change vs veh, TAF9 / RFU, SLC1A5 / Fold change vs veh, SLC1A5 / RFU, SLMO2 / Fold change vs veh, SLMO2 / RFU, ABCC4 / Fold change vs veh, ABCC4 / RFU, LOC101060439 /// RAP1B / Fold change vs veh, LOC101060439 /// RAP1B / RFU, RFX7 / Fold change vs veh, RFX7 / RFU, GTPBP10 / Fold change vs veh, GTPBP10 / RFU, CNEP1R1 / Fold change vs veh, CNEP1R1 / RFU, BIVM-ERCC5 /// ERCC5 / Fold change vs veh, BIVM-ERCC5 /// ERCC5 / RFU, ILF3 / Fold change vs veh, ILF3 / RFU 11762660_at / Fold change /veh 11762660_at / RFU VCAN (11757783_s_at) / Fold change /veh VCAN (11757783_s_at) / RFU DDX43 (11728927_at) / Fold change /veh DDX43 (11728927_at) / RFU KRT8 (11758188_x_at) / Fold change /veh KRT8 (11758188_x_at) / RFU NKD1 (11759106_at) / Fold change /veh NKD1 (11759106_at) / RFU SRD5A1 (11742802_a_at) / Fold change /veh SRD5A1 (11742802_a_at) / RFU TPSAB1 /// TPSB2 (11721975_s_at) / Fold change /veh TPSAB1 /// TPSB2 (11721975_s_at) / RFU GSTM3 (11746129_a_at) / Fold change /veh GSTM3 (11746129_a_at) / RFU IL23R (11737362_x_at) / Fold change /veh IL23R (11737362_x_at) / RFU TMEM51 (11727254_a_at) / Fold change /veh TMEM51 (11727254_a_at) / RFU PIWIL2 (11732686_x_at) / Fold change /veh PIWIL2 (11732686_x_at) / RFU ORM1 (11744905_x_at) / Fold change /veh ORM1 (11744905_x_at) / RFU CCDC152 (11743942_at) / Fold change /veh CCDC152 (11743942_at) / RFU ECM1 (11717891_a_at) / Fold change /veh ECM1 (11717891_a_at) / RFU IL23R (11748794_a_at) / Fold change /veh IL23R (11748794_a_at) / RFU TNFAIP8L3 (11732012_x_at) / Fold change /veh TNFAIP8L3 (11732012_x_at) / RFU MBOAT4 (11741988_at) / Fold change /veh MBOAT4 (11741988_at) / RFU 11764193_at / Fold change /veh 11764193_at / RFU TMEM53 (11763286_at) / Fold change /veh TMEM53 (11763286_at) / RFU MAGEB2 (11727129_at) / Fold change /veh MAGEB2 (11727129_at) / RFU TMEM200A (11744735_a_at) / Fold change /veh TMEM200A (11744735_a_at) / RFU CCDC152 (11751479_a_at) / Fold change /veh CCDC152 (11751479_a_at) / RFU FAM211A (11726209_a_at) / Fold change /veh FAM211A (11726209_a_at) / RFU RGS16 (11746705_a_at) / Fold change /veh RGS16 (11746705_a_at) / RFU VCAN (11755009_s_at) / Fold change /veh VCAN (11755009_s_at) / RFU RHOB (11743442_s_at) / Fold change /veh RHOB (11743442_s_at) / RFU RGS16 (11720943_a_at) / Fold change /veh RGS16 (11720943_a_at) / RFU RGS16 (11720944_at) / Fold change /veh RGS16 (11720944_at) / RFU, VPS4B / Fold change vs veh, VPS4B / RFU, CREB1 / Fold change vs veh, CREB1 / RFU, DNAJC13 / Fold change vs veh, DNAJC13 / RFU, GNAQ / Fold change vs veh, GNAQ / RFU, CDK5R1 / Fold change vs veh, CDK5R1 / RFU, ZRANB3 / Fold change vs veh, ZRANB3 / RFU, CUL4A / Fold change vs veh, CUL4A / RFU, CCNY / Fold change vs veh, CCNY / RFU, UFL1 / Fold change vs veh, UFL1 / RFU, COG3 / Fold change vs veh, COG3 / RFU, DIAPH2 / Fold change vs veh, DIAPH2 / RFU, SKA2 / Fold change vs veh, SKA2 / RFU, AFF3 / Fold change vs veh, AFF3 / RFU, LMF1 / Fold change vs veh, LMF1 / RFU, IPO11 / Fold change vs veh, IPO11 / RFU, DFFB / Fold change vs veh, DFFB / RFU, FOXP1 / Fold change vs veh, FOXP1 / RFU, CARD8 / Fold change vs veh, CARD8 / RFU, STRN3 / Fold change vs veh, STRN3 / RFU, ADK / Fold change vs veh, ADK / RFU, RASSF2 / Fold change vs veh, RASSF2 / RFU, WIPF1 / Fold change vs veh, WIPF1 / RFU, LARP1B / Fold change vs veh, LARP1B / RFU, RASA1 / Fold change vs veh, RASA1 / RFU, RB1 / Fold change vs veh, RB1 / RFU, PPFIA1 / Fold change vs veh, PPFIA1 / RFU, MAT2A / Fold change vs veh, MAT2A / RFU, CCT5 / Fold change vs veh, CCT5 / RFU, WDR92 / Fold change vs veh, WDR92 / RFU, CUX1 / Fold change vs veh, CUX1 / RFU, TTC7A / Fold change vs veh, TTC7A / RFU, TMEM135 / Fold change vs veh, TMEM135 / RFU, DEPTOR / Fold change vs veh, DEPTOR / RFU, CPM / Fold change vs veh, CPM / RFU, DNAJB6 / Fold change vs veh, DNAJB6 / RFU, CACNA2D3 / Fold change vs veh, CACNA2D3 / RFU, DTX4 / Fold change vs veh, DTX4 / RFU, TFCP2 / Fold change vs veh, TFCP2 / RFU, GMCL1 /// GMCL1P1 / Fold change vs veh, GMCL1 /// GMCL1P1 / RFU, AEBP2 / Fold change vs veh, AEBP2 / RFU, SNHG1 /// SNORD22 /// SNORD25 /// SNORD26 /// SNORD27 /// SNORD28 /// SNORD29 /// SNORD31 / Fold change vs veh, SNHG1 /// SNORD22 /// SNORD25 /// SNORD26 /// SNORD27 /// SNORD28 /// SNORD29 /// SNORD31 / Fold change (Aza/veh), C12orf56 (ProbeSet 11735607_a_at) / Fold change (ACY-1035/veh), C12orf56 (ProbeSet 11735607_a_at) / Fold change (Aza/veh), FGFR1OP (ProbeSet 11751329_s_at) / Fold change (ACY-1035/veh), FGFR1OP (ProbeSet 11751329_s_at) / Fold change (Aza/veh), VPS36 (ProbeSet 11739960_a_at) / Fold change (ACY-1035/veh), VPS36 (ProbeSet 11739960_a_at) / RFU SYPL1 (11715823_x_at) / Fold change /veh SYPL1 (11715823_x_at) / RFU IGFBP7 (11715501_s_at) / Fold change /veh IGFBP7 (11715501_s_at) / RFU REEP3 (11722064_at) / Fold change /veh REEP3 (11722064_at) / RFU IGLL1 (11728026_x_at) / Fold change /veh IGLL1 (11728026_x_at): dose or concentration left out as unconfirmed
Conditions: MV-4-11 cells, 48 hours

Nc1ncn([C@@H]2O[C@H](CO)[C@@H](O)[C@H]2O)c(=O)n1 [azacitidine]
Fold change /veh OASL (11726364_x_at): 0.86
